From US20040077611A1, “Triple therapy of angiotensin converting enzyme inhibitor epoxy-steroidal aldosterone antagonist and diuretic or digoxin for treatment of cardiovascular disease” (G.D. Searle & Co., priority 1999, published 2004)
≈ marks a conversion by molar mass, not a printed value. Like-named read-outs stand apart in the source and are kept apart here.

What was measured:
[1] = test system: patients with impaired ejection fraction post AMI; conditions: cited from earlier work
[2] = test system: patients with clinical evidence of HF at any time after an AMI; conditions: cited from earlier work; for risk reduction in all cause mortality: compared to placebo (p=0.002)
[3] = test system: patients afflicted with congestive heart failure; conditions: cited from earlier work
[4] = test system: myocardial fibrosis in animal models; conditions: cited from earlier work
[5] = test system: patients with severe HF (NYHA Class III or IV); conditions: cited from earlier work
[6] = test system: patients with stable NYHA Class II-IV heart failure; test: Clinical trial of eplerenone added to ACE inhibitor and loop diuretic in heart failure (Biological Evaluation I); conditions: for plasma renin activity (PRA): 12 weeks of treatment, FIG. 28
[7] = test system: patients alive at Day 3 with Killip class >I; conditions: patients randomized to lisinopril; ACE-I treatment stopped at 42 days; cited from earlier work
[8] = Dissolution rate of unformulated solid state forms of eplerenone; format: physicochemical; conditions: temperatures below the enantiotropic transition temperature
[9] = Physical stability of solid state forms of eplerenone; format: physicochemical; conditions: temperatures below the enantiotropic transition temperature
[10] = test system: patients with LV dysfunction 2 to 6 days following MI; conditions: cited from earlier work
[11] = test system: patients with severe HF (NYHA Class IV); conditions: cited from earlier work
[12] = Solubility of eplerenone in crystallization solvents; format: physicochemical; conditions: organic crystallization solvent or mixture of solvents, room temperature
[13] = test system: patients with stable NYHA Class II-IV heart failure; conditions: human, in vivo
humans = test: Effects of eplerenone pharmaceutical compositions in humans after oral administration; format: in vivo
[14] = humans, over about 12 to 24 hours after ingestion of the composition

CCOC(=O)[C@H](CCc1ccccc1)N[C@@H](C)C(=O)N1[C@H](C(=O)O)C[C@@H]2CCC[C@@H]21 [ramipril]
ventricular dilatation and systolic dysfunction [1]: prevented ventricular dilatation and further decline of systolic dysfunction | risk reduction in all cause mortality ([2]; AIRE): 27% | reduction in the risk of developing severe resistant HF ([2]; AIRE, compared to placebo (p=0.017)): 23% | risk reduction in all cause mortality ([2]; AIREX long-term (three year) follow-up): 36%

CC(=O)S[C@@H]1CC2=CC(=O)CC[C@]2(C)[C@H]2CC[C@@]3(C)[C@@H](CC[C@@]34CCC(=O)O4)[C@H]12 [spironolactone]
ventricular dilatation and systolic dysfunction [1]: prevented ventricular dilatation and further decline of systolic dysfunction | clinical outcome ([3]; co-therapy of spironolactone and enalapril): Clinical improvements | patients in whom co-therapy was highly effective ([3]; spironolactone coadministered with an ACE inhibitor): 13 of 16 | myocardial fibrosis ([4]; Klug et al): prevents myocardial fibrosis | fibrosis ([4]; irrespective of the development of left ventricular hypertrophy and the presence of hypertension, Brilla et al): prevent fibrosis | reduction in mortality compared to placebo ([5]; as restated): > 30% | median increase in serum potassium concentration ([5]; compared to patients treated with placebo): statistically but not clinically significant | risk reduction for all cause mortality ([5]; spironolactone 25 mg daily added to standard therapy vs standard therapy plus placebo (p<0.001)): 30% | lower frequency of hospitalization for worsening HF ([5]; vs placebo patients): 35% | plasma renin activity (PRA) [6]: significantly elevated | testosterone levels ([6]; males): significant increase

NCCCC[C@H](N[C@@H](CCc1ccccc1)C(=O)O)C(=O)N1CCC[C@H]1C(=O)O [lisinopril]
first-year mortality [7]: 22%

COC(=O)[C@@H]1CC2=CC(=O)CC[C@]2(C)[C@@]23O[C@@H]2C[C@@]2(C)[C@@H](CC[C@@]24CCC(=O)O4)[C@H]13 [Form H]
dissolution rate relative to unformulated Form L [8]: approximately 30%

COC(=O)[C@@H]1CC2=CC(=O)CC[C@]2(C)[C@@]23O[C@@H]2C[C@@]2(C)[C@@H](CC[C@@]24CCC(=O)O4)[C@H]13 [Form L]
physical stability relative to Form H [9]: greater physical stability

CCOC(=O)[C@H](CCc1ccccc1)N[C@@H](C)C(=O)N1[C@H](C(=O)O)C[C@H]2CCCC[C@@H]21 [trandolapril]
relative reduction in the risk of death ([10]; compared to placebo (p=0.001)): 18% | reduction in the risk of progression to severe HF ([10]; compared to placebo (p=0.003)): 29%

CCOC(=O)[C@H](CCc1ccccc1)N[C@@H](C)C(=O)N1CCC[C@H]1C(=O)O [enalapril]
reduction of mortality at one year ([11]; enalapril plus diuretics compared to placebo plus diuretics): 31% | mortality ([11]; group with baseline aldosterone plasma levels above the median): reduced | mortality ([11]; group with baseline aldosterone plasma levels below the median): no difference from placebo

COC(=O)[C@@H]1CC2=CC(=O)CC[C@]2(C)[C@@]23O[C@@H]2C[C@@]2(C)[C@@H](CC[C@@]24CCC(=O)O4)[C@H]13 [eplerenone, Pregn-4-ene-7,21-dicarboxylic acid, 9,11-epoxy-17-hydroxy-3-oxo-, γ-lactone, methyl ester, (7^α, 11^α, 17^α)-]
solubility [12]: 5 to 200 mg/mL (≈ 12.1 to 483 mM) | testosterone levels [13]: lack of effect | plasma renin activity (PRA) [6]: significantly elevated | reduction in BNP ([6]; eplerenone at 25 mg and 100 mg, all patients, FIG. 29): highly significant | urinary aldosterone excretion, increase from baseline ([6]; eplerenone doses of 50 and 100 mg, 12 week visit): Greater increases | average decrease in diasystolic blood pressure (humans; [14]): at least 5% | average increase in blood serum aldosterone concentrations (humans; [14]): at least 50% | average increase in blood serum renin concentration (humans; [14]): at least 10% | urinary log10 (sodium/potassium) ratio (humans; [14]): increase | efficacy of the required daily dosage, once-a-day relative to twice-a-day administration (humans; in vivo): does not appear to materially differ
